Experimental data taken from PubChem BioAssay AID2060506 (Molecular Pharmacology Branch, DTP, NCI, 2025).

System: 598228-144-R-J1-PDC complex spheroid viability
Assay: Anticancer human tumor 598228-144-R-J1-PDC patient-derived serous endometrial adenocarcinoma cell line growth inhibition [GQUAD]
Settings: for IC50: curve of first compound; for viability, T/C: stronger effect = lower value
In short: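 Viability of tumor cells grown as complex spheroids with endothelial and stromal cells, exposed to drug combinations. Top concentration at or near clinical Cmax (else 10 microM), diluted in half-log increments.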

[1] = second compound 0.0316 µM, first compound 0.0316 µM
[2] = second compound 0.0316 µM, first compound 0.1 µM
[3] = second compound 0.0316 µM, first compound 0.316 µM
[4] = second compound 0.0316 µM, first compound 1 µM
[5] = second compound 0.0316 µM, first compound 3.16 µM
[6] = second compound 0.0316 µM, first compound 10 µM
[7] = second compound 0.1 µM, first compound 0.0316 µM
[8] = second compound 0.1 µM, first compound 0.1 µM
[9] = second compound 0.1 µM, first compound 0.316 µM
[10] = second compound 0.1 µM, first compound 1 µM
[11] = second compound 0.1 µM, first compound 3.16 µM
[12] = second compound 0.1 µM, first compound 10 µM
[13] = second compound 0.316 µM, first compound 0.0316 µM
[14] = second compound 0.316 µM, first compound 0.1 µM
[15] = second compound 0.316 µM, first compound 0.316 µM
[16] = second compound 0.316 µM, first compound 1 µM
[17] = second compound 0.316 µM, first compound 3.16 µM
[18] = second compound 0.316 µM, first compound 10 µM
[19] = second compound 1 µM, first compound 0.0316 µM
[20] = second compound 1 µM, first compound 0.1 µM
[21] = second compound 1 µM, first compound 0.316 µM
[22] = second compound 1 µM, first compound 1 µM
[23] = second compound 1 µM, first compound 3.16 µM
[24] = second compound 1 µM, first compound 10 µM
[25] = second compound 3.16 µM, first compound 0.0316 µM
[26] = second compound 3.16 µM, first compound 0.1 µM
[27] = second compound 3.16 µM, first compound 0.316 µM
[28] = second compound 3.16 µM, first compound 1 µM
[29] = second compound 3.16 µM, first compound 3.16 µM
[30] = second compound 3.16 µM, first compound 10 µM
[31] = second compound 10 µM, first compound 0.0316 µM
[32] = second compound 10 µM, first compound 0.1 µM
[33] = second compound 10 µM, first compound 0.316 µM
[34] = second compound 10 µM, first compound 1 µM
[35] = second compound 10 µM, first compound 3.16 µM
[36] = second compound 10 µM, first compound 10 µM
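Note: spheroids exposed to the agents for one week before reading.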
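Throughout, for viability, T/C: percent of vehicle DMSO control viability so 100% = untreated growth.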

Nc1ccn(C2OC(CO)C(O)C2(F)F)c(=O)n1 (centres undefined) + Cc1[nH]c2ccc(F)cc2c1-c1nc2c3cccnc3c3ncccc3c2[nH]1
IC50 (second compound 0.0316 µM): 439 nM
IC50 (second compound 0.1 µM): 136 nM
IC50 (second compound 0.316 µM): 135 nM
IC50 (second compound 1 µM): 44.8 nM
IC50 (second compound 3.16 µM): < 31.6 nM
IC50 (second compound 10 µM): < 31.6 nM
viability, T/C [1]: 64.6%
viability, T/C [2]: 54.6%
viability, T/C [3]: 52.1%
viability, T/C [4]: 47.9%
viability, T/C [5]: 43.9%
viability, T/C [6]: 41%
viability, T/C [7]: 54.8%
viability, T/C [8]: 57.5%
viability, T/C [9]: 45.3%
viability, T/C [10]: 40%
viability, T/C [11]: 39.9%
viability, T/C [12]: 44.9%
viability, T/C [13]: 60.7%
viability, T/C [14]: 52.3%
viability, T/C [15]: 48.3%
viability, T/C [16]: 39.9%
viability, T/C [17]: 43.6%
viability, T/C [18]: 49.7%
viability, T/C [19]: 53.2%
viability, T/C [20]: 49.1%
viability, T/C [21]: 46.2%
viability, T/C [22]: 36.3%
viability, T/C [23]: 50.4%
viability, T/C [24]: 41.9%
viability, T/C [25]: 36.3%
viability, T/C [26]: 36.7%
viability, T/C [27]: 38.5%
viability, T/C [28]: 37.9%
viability, T/C [29]: 32.4%
viability, T/C [30]: 44.5%
viability, T/C [31]: 51.6%
viability, T/C [32]: 37.6%
viability, T/C [33]: 37.8%
viability, T/C [34]: 47.5%
viability, T/C [35]: 35.7%
viability, T/C [36]: 32%

O=c1[nH]cc(F)c(=O)[nH]1 + Cc1[nH]c2ccc(F)cc2c1-c1nc2c3cccnc3c3ncccc3c2[nH]1
IC50 (second compound 0.0316 µM): > 10000 nM
IC50 (second compound 0.1 µM): > 10000 nM
IC50 (second compound 0.316 µM): > 10000 nM
IC50 (second compound 1 µM): > 10000 nM
IC50 (second compound 3.16 µM): < 31.6 nM
IC50 (second compound 10 µM): > 10000 nM
viability, T/C [1]: 106%
viability, T/C [2]: 112%
viability, T/C [3]: 90.2%
viability, T/C [4]: 94.3%
viability, T/C [5]: 89.6%
viability, T/C [6]: 81.4%
viability, T/C [7]: 97.4%
viability, T/C [8]: 102%
viability, T/C [9]: 85.1%
viability, T/C [10]: 109%
viability, T/C [11]: 91.8%
viability, T/C [12]: 93.9%
viability, T/C [13]: 98.6%
viability, T/C [14]: 99.9%
viability, T/C [15]: 74.9%
viability, T/C [16]: 85.8%
viability, T/C [17]: 70.4%
viability, T/C [18]: 67.2%
viability, T/C [19]: 57.5%
viability, T/C [20]: 66.9%
viability, T/C [21]: 58%
viability, T/C [22]: 55.5%
viability, T/C [23]: 54.5%
viability, T/C [24]: 60.7%
viability, T/C [25]: 38.1%
viability, T/C [26]: 39.2%
viability, T/C [27]: 49.5%
viability, T/C [28]: 48.1%
viability, T/C [29]: 48.8%
viability, T/C [30]: 47%
viability, T/C [31]: 66.8%
viability, T/C [32]: 62.6%
viability, T/C [33]: 63.8%
viability, T/C [34]: 60.8%
viability, T/C [35]: 57.4%
viability, T/C [36]: 54.2%
